Results reported in patent US20230066011A1, “PYRROLOPYRIMIDINE DERIVATIVE, AND PHARMACEUTICAL COMPOSITION FOR PREVENTING OR TREATING PROTEIN KINASE-RELATED DISEASE COMPRISING SAME AS ACTIVE INGREDIENT” (VORONOI CO., LTD., priority 2019, published 2023).

Assays:
Type in all cases: biochemical
human GST-CLK1 = molecular target: T1, human GST-CLK1 (Homo sapiens, UniProt P49759); test: GST-CLK1 enzyme inhibition, ADP-Glo kinase assay; details: ATP 10 μM, GST-CLK1 129-end
T1 construct: purified human GST-CLK1 (129-end, SignalChem) enzyme; purchased SignalChem
Outline: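 Human GST-CLK1 (129-end, 3 ng) reacted with substrate and 10 μM ATP for 1 h at 25° C in 40 mM Tris-HCl pH 7.4, 20 mM MgCl2, 0.5 mg/mL BSA, 50 μM DTT. ADP-Glo luminescence was normalised to solvent control; IC50 (nM) from 3 data sets.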

human GST-DYRK1A = molecular target: T2, human GST-DYRK1A (Homo sapiens, UniProt Q13627); test: GST-DYRK1A enzyme inhibition, ADP-Glo kinase assay; details: ATP 10 μM, GST-DYRK1A full length, read-out: DYRK1 IC50
T2 construct: purified human GST-DYRK1A (full length, Thermo Scientifics) enzyme; purchased Thermo Scientifics
Outline: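 Full-length human GST-DYRK1A (10 ng) with 10 μM ATP and specific substrate in 40 mM Tris-HCl pH 7.4, 20 mM MgCl2, 0.5 mg/mL BSA, 50 μM DTT, 1 h at 25 °C. ADP formation read by ADP-Glo luminescence relative to solvent control; IC50 from three data sets.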

LRRK2 (G2019S) = LRRK2 (G2019S) (Homo sapiens, UniProt Q5S007, G2019S); test: LRRK2 G2019S enzyme inhibition, ADP-Glo kinase assay; set-up: purchased SignalChem L10-12GG; details: ATP 25 μM
Outline: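 Purified human LRRK2 G2019S (16 ng) with 25 μM ATP and 0.2 μg substrate, 2 h at 25° C. in Tris-HCl pH 7.4, MgCl2, BSA, DTT buffer; compounds at 12 final concentrations, 50 μM down to 0.000001024 μM. ADP-Glo luminescence versus solvent control gave IC50.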

LRRK2 (G2019S), sequence (Q5S007 970-2527 G2019S limits assumed): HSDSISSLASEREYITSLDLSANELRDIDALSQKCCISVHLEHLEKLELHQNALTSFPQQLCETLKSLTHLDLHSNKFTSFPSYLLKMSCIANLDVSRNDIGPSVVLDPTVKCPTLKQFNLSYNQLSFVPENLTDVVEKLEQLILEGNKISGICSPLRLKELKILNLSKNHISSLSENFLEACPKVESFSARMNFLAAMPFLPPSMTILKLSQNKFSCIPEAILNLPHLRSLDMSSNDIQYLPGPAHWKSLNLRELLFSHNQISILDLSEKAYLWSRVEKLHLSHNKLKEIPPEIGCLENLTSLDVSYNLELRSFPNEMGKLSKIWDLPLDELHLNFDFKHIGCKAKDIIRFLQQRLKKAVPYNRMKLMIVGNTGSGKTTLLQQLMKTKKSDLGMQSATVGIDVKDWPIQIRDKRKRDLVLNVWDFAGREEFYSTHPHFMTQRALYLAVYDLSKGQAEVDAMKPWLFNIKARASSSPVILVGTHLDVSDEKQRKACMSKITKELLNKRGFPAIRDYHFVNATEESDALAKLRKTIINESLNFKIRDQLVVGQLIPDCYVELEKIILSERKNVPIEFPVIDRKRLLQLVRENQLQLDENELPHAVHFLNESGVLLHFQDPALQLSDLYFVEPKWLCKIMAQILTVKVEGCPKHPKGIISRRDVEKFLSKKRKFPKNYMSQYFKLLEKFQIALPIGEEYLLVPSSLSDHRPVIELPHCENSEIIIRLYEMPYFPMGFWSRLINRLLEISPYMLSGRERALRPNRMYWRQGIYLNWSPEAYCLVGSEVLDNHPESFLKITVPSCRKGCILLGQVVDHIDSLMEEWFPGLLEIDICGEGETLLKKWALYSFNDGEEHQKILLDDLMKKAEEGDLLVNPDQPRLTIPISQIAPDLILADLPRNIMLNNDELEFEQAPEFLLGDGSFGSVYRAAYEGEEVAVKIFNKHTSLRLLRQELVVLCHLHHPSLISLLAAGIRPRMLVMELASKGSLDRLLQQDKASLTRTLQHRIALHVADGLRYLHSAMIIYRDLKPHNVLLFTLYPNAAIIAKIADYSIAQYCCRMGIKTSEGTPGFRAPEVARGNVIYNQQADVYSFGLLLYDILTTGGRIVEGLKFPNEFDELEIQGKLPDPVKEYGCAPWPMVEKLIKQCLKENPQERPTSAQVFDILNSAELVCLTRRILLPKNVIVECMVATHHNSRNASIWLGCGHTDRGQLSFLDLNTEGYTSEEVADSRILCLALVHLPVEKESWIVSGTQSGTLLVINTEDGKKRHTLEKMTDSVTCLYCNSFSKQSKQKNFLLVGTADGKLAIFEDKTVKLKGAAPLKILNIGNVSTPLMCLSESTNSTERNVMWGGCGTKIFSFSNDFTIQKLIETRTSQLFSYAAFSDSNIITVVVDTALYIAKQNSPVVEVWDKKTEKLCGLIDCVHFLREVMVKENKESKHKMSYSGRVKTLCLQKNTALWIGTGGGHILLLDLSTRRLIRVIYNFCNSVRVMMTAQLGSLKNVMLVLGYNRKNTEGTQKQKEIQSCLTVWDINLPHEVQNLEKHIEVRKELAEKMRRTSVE
T1 sequence (P49759 129-484 limits assumed): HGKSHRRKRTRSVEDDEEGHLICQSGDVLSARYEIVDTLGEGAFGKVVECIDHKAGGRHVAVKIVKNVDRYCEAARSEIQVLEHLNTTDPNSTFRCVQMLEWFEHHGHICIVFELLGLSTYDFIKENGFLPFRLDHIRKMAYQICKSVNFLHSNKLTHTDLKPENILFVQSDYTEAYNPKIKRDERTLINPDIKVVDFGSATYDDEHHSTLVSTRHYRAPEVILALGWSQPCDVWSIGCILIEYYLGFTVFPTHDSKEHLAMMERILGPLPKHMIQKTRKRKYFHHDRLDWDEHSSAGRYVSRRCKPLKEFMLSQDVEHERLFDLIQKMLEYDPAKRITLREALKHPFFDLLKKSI

IC50 (human GST-CLK1) [nM]	IC50 (human GST-DYRK1A) [nM]	IC50 (LRRK2 (G2019S)) [nM]	Compound
301 to 1000	301 to 1000	< 100	CCCCNc1nc(Nc2ccc(P3(=O)CCN(C4CC4)CC3)cc2OC)nc2[nH]cc(C(F)(F)F)c12 [Example 428, 4-(4-((4-(butylamino)-5-(trifluoromethyl)-7H-pyrrolo[2,3-d]pyrimidin-2-yl)amino)-3-methoxyphenyl)-1-cyclopropyl-1,4-azaphosphinane 4-oxide]
< 100	< 100	< 100	CCCCNc1nc(Nc2ccc(C(=O)N3CCN(C4COC4)CC3)c3c2OCCO3)nc2[nH]cc(C(F)(F)F)c12 [Example 429, (8-((4-(butylamino)-5-(trifluoromethyl)-7H-pyrrolo[2,3-d]pyrimidin-2-yl)amino)-2,3-dihydrobenzo[b] [1,4]dioxin-5-yl) (4-(oxetan-3-yl)piperazin-1-yl)methanone]
< 100	301 to 1000	< 100	O=C(c1ccc(Nc2nc(NC3CC3)c3c(C(F)(F)F)c[nH]c3n2)c2c1CCO2)N1CCOCC1 [Example 433, (7-((4-(cyclo-propylamino)-5-(trifluoromethyl)-7H-pyrrolo[2,3-d]pyrimidin-2-yl)amino)-2,3-dihydrobenzo-furan-4-yl) (morpholino) methanone]
301 to 1000	301 to 1000	< 100	CC(C)CNc1nc(Nc2ccc(C(=O)N3CCOCC3)c3c2OCC3)nc2[nH]cc(C(F)(F)F)c12 [Example 447, (7-((4-(iso-butylamino)-5-(trifluoromethyl)-7H-pyrrolo[2,3-d]pyrimidin-2-yl)amino)-2,3-dihydrobenzo-furan-4-yl) (morpholino) methanone]
< 100	301 to 1000	< 100	CC(C)Nc1nc(Nc2ccc(C(=O)N3CCOCC3)c3c2OCC3)nc2[nH]cc(C(F)(F)F)c12 [Example 449, (7-((4-(isopropylamino)-5-(trifluoromethyl)-7H-pyrrolo[2,3-d]pyrimidin-2-yl)amino)-2,3-dihydrobenzo-furan-4-yl) (morpholino) methanone]
301 to 1000	301 to 1000	< 100	CC[C@H](C)Nc1nc(Nc2ccc(C(=O)N3CCOCC3)c3c2OCC3)nc2[nH]cc(C(F)(F)F)c12 [Example 451, (S)-(7-((4-(sec-butylamino)-5-(trifluoromethyl)-7H-pyrrolo[2,3-d]pyrimidin-2-yl)amino)-2,3-dihydrobenzo-furan-4-yl) (morpholino) methanone]
301 to 1000	301 to 1000	< 100	O=C(c1ccc(Nc2nc(NC3CCCC3)c3c(C(F)(F)F)c[nH]c3n2)c2c1CCO2)N1CCOCC1 [Example 453, (7-((4-(cyclo-pentylamino)-5-(trifluoromethyl)-7H-pyrrolo[2,3-d]pyrimidin-2-yl)amino)-2,3-dihydrobenzo-furan-4-yl) (morpholino) methanone]
301 to 1000	301 to 1000	< 100	O=C(c1ccc(Nc2nc(NC3CCCCC3)c3c(C(F)(F)F)c[nH]c3n2)c2c1CCO2)N1CCOCC1 [Example 454, (7-((4-(cyclo-hexylamino)-5-(trifluoromethyl)-7H-pyrrolo[2,3-d]pyrimidin-2-yl)amino)-2,3-dihydrobenzo-furan-4-yl) (morpholino) methanone]
< 100	< 100	< 100	O=C(c1ccc(Nc2nc(N[C@H]3CCOC3)c3c(C(F)(F)F)c[nH]c3n2)c2c1CCO2)N1CCOCC1 [Example 455]
< 100	301 to 1000	< 100	O=C(c1ccc(Nc2nc(NC3CCOCC3)c3c(C(F)(F)F)c[nH]c3n2)c2c1CCO2)N1CCOCC1 [Example 456, morpholino(7-((4-((tetrahydro-2H-pyran-4-yl)amino)-5-(trifluoromethyl)-7H-pyrrolo[2,3-d]pyrimidin-2-yl)amino)-2,3-dihydrobenzo-furan-4-yl)methanone]
